The source of these data is publication PMC8596578, “Structural Basis for The Recognition of Deaminated Nucleobases by An Archaeal DNA Polymerase” (Chembiochem, 2021).

The assay concerns the target T1, KOD DNA polymerase (exonuclease deficient mutant D141A, E143A) (Thermococcus kodakarensis, UniProt P77933, D141A/E143A).
T1 construct: gene pol; exonuclease-deficient polymerase, codon-optimized, pET24a (NdeI/NotI), E. coli BL21(DE3); intein-free mature protein
The assay can be described thus: X-ray crystal structure of closed ternary complex. To be noted: primer/template DNA (21 nt template, with canonical bases in KOD-21nt or uracil at +6 in KOD-U); polymerase active site, Mg2+ and Mn2+; pH 7.5 (KOD-21nt) or 6.5 (KOD-U). Type of assay: binding.

On to `Nc1ncnc2c1ncn2[C@H]1C[C@H](O)[C@@H](COP(=O)(O)OP(=O)(O)OP(=O)(O)O)O1` [dATP], for which the “X-ray crystal structure of closed ternary complex” value was “closed ternary complex, with dATP and three metal ions”.
